Like-named read-outs stand apart in the source and are kept apart here.
Legend:
Test in all cases: MIC of imipenem, ertapenem and meropenem
E. coli = format: cell-based, Escherichia coli; details: Escherichia coli
E. cloacae = format: cell-based, Enterobacter cloacae; details: Enterobacter cloacae, read-out: MIC
P. rettgeri = format: cell-based, Providencia rettgeri
C. freundii = format: cell-based, Citrobacter freundii
P. mirabilis = format: cell-based

## C[C@@H](O)[C@H]1C(=O)N2C(C(=O)O)=C(S[C@@H]3CN[C@H](C(=O)Nc4cccc(C(=O)O)c4)C3)[C@H](C)[C@H]12 [ETP, ertapenem]
E. coli; E. coli 1020, CTX-M-1 + TEM-1, non-carbapenemase producer
  MIC: 0.023 µg/mL
E. coli; E. coli 1023, CTX-M-2 + TEM-1, non-carbapenemase producer, read-out: MIC
  MIC: 0.016 µg/mL
E. coli; E. coli 1034, TEM-1 + SHV-38, non-carbapenemase producer, read-out: MIC
  MIC: 0.006 µg/mL
E. coli; E. coli 1048, TEM-1 + SHV-2a, non-carbapenemase producer, read-out: MIC
  MIC: 0.012 µg/mL
E. coli; E. coli 1082 (TEM-1)
  MIC: 0.019 µg/mL
E. coli; E. coli 1082, TEM-1, non-carbapenemase producer
  MIC: 0.019 µg/mL
E. coli; E. coli 1092, OXA-1, non-carbapenemase producer, read-out: MIC
  MIC: 0.19 µg/mL
E. coli; E. coli 6252, (wild type), non-carbapenemase producer
  MIC: 0.004 µg/mL
E. coli; E. coli 10121, CTX-M-2, non-carbapenemase producer, read-out: MIC
  MIC: 0.016 µg/mL
E. coli; E. coli 1108013, IMP-1 + TEM-1, read-out: MIC
  MIC: 4 µg/mL
E. coli; E. coli AUS (NDM-1 + CTX-M-15 + TEM-1), read-out: MIC
  MIC: 32 µg/mL
E. coli; E. coli AUS, NDM-1 + TEM-1 + CTX-M-15, read-out: MIC
  MIC: 32 µg/mL
E. coli; E. coli BER (OXA-48 + CTX-M-15), read-out: MIC
  MIC: 1.5 µg/mL
E. coli; E. coli BER, OXA-48 + TEM-1 + CTX-M-15, read-out: MIC
  MIC: 1.5 µg/mL
E. coli; E. coli BOK (OXA-48 + CTX-M-15), read-out: MIC
  MIC: 0.38 µg/mL
E. coli; E. coli BOK, OXA-48 + CTX-M-15, read-out: MIC
  MIC: 0.38 µg/mL
E. coli; E. coli BON (OXA-48 + CTX-M-24 + TEM-1), read-out: MIC
  MIC: 0.5 µg/mL
E. coli; E. coli BON, OXA-48 + TEM-1 + CTX-M-24, read-out: MIC
  MIC: 0.5 µg/mL
E. coli; E. coli BOU (OXA-48 + CTX-M-15), read-out: MIC
  MIC: 0.75 µg/mL
E. coli; E. coli BOU, OXA-48 + CTX-M-15, read-out: MIC
  MIC: 0.75 µg/mL
E. coli; E. coli COL (KPC-2), read-out: MIC
  MIC: 4 µg/mL
E. coli; E. coli COL, KPC-2 + TEM-1 + CTX-M-9, read-out: MIC
  MIC: 4 µg/mL
E. coli; E. coli DIH (VIM-19), read-out: MIC
  MIC: 16 µg/mL
E. coli; E. coli DIH, VIM-19, read-out: MIC
  MIC: 16 µg/mL
E. coli; E. coli DIN, KPC-2 + TEM-1 + OXA-1, read-out: MIC
  MIC: > 32 µg/mL
E. coli; E. coli E14 (CTX-M-14), read-out: MIC
  MIC: 0.12 µg/mL
E. coli; E. coli E14, CTX-M-14, non-carbapenemase producer, read-out: MIC
  MIC: 0.012 µg/mL
E. coli; E. coli ECA, ACC-1, non-carbapenemase producer, read-out: MIC
  MIC: 0.012 µg/mL
E. coli; E. coli EVB, VEB-1, non-carbapenemase producer, read-out: MIC
  MIC: 0.012 µg/mL
E. coli; E. coli FOR, CTX-M-15, non-carbapenemase producer, read-out: MIC
  MIC: 0.012 µg/mL
E. coli; E. coli GEN (NDM-1 + OXA-1 + CMY-30 + TEM-1), read-out: MIC
  MIC: > 32 µg/mL
E. coli; E. coli GEN, NDM-1 + TEM-1 + CMY-30 + OXA-1, read-out: MIC
  MIC: > 32 µg/mL
E. coli; E. coli GOG (OXA-48 + CTX-M-24), read-out: MIC
  MIC: 1.5 µg/mL
E. coli; E. coli MET, Chromosome-encoded extended-spectrum cephalosporinase, non-carbapenemase producer, read-out: MIC
  MIC: 0.012 µg/mL
E. coli; E. coli NAA (OXA-48 + CTX-M-24), read-out: MIC
  MIC: 2 µg/mL
E. coli; E. coli OM3, OXA-48 + TEM-1 + CTX-M-15, read-out: MIC
  MIC: 1 µg/mL
E. coli; E. coli OM20, NDM-1 + TEM-1 + CTX-M-15, read-out: MIC
  MIC: > 32 µg/mL
E. coli; E. coli OM22, OXA-48 + TEM-1 + CTX-M-15, read-out: MIC
  MIC: 1 µg/mL
E. coli; E. coli PSP (KPC-2), read-out: MIC
  MIC: 0.5 µg/mL
E. coli; E. coli PSP, KPC-2 + TEM-1 + OXA-1, read-out: MIC
  MIC: 0.5 µg/mL
E. coli; E. coli RIC (NDM-1 + OXA-1 + OXA-10 + CMY-16), read-out: MIC
  MIC: 3 µg/mL
E. coli; E. coli RIC, NDM-1 + CMY-16 + OXA-1 + OXA-10, read-out: MIC
  MIC: 3 µg/mL
E. coli; E. coli ROB (OXA-48), read-out: MIC
  MIC: 0.75 µg/mL
E. coli; E. coli ROB, OXA-48, read-out: MIC
  MIC: 0.75 µg/mL
E. coli; E. coli SYD, CMY-2, non-carbapenemase producer, read-out: MIC
  MIC: 0.012 µg/mL
E. coli; E. coli TWA, IMP-8 + SHV-12, read-out: MIC
  MIC: 8 µg/mL
E. coli; E. coli ZAN, OXA-48 + TEM-1 + CTX-M-14, read-out: MIC
  MIC: 8 µg/mL
E. coli; strain E. coli 1008, TEM-1 + CTX-M-1, non-carbapenemase producer, read-out: MIC
  MIC: 0.016 µg/mL
E. coli; strain E. coli 1034, TEM-1 + SHV-38, non-carbapenemase producer, read-out: MIC
  MIC: 0.006 µg/mL
E. coli; strain E. coli 1048, TEM-1 + SHV-2a, non-carbapenemase producer, read-out: MIC
  MIC: 0.012 µg/mL
E. coli; strain E. coli 10121, CTX-M-2, non-carbapenemase producer, read-out: MIC
  MIC: 0.016 µg/mL
E. coli; strain E. coli AME, OXA-48 + CTX-M-24, read-out: MIC
  MIC: 0.5 µg/mL
E. coli; strain E. coli BON, OXA-48 + TEM-1 + CTX-M-24, read-out: MIC
  MIC: 0.5 µg/mL
E. cloacae; E. cloacae 501, OXA-48 + TEM-1 + CTX-M-15
  MIC: 16 µg/mL
E. cloacae; E. cloacae 1012, TEM-1 + SHV-12, non-carbapenemase producer
  MIC: 0.016 µg/mL
E. cloacae; E. cloacae 1027, TEM-1 + CTX-M-15, non-carbapenemase producer
  MIC: 0.016 µg/mL
E. cloacae; E. cloacae 5434 (wild type)
  MIC: 0.016 µg/mL
E. cloacae; E. cloacae 5434, (wild type), non-carbapenemase producer
  MIC: 0.016 µg/mL
E. cloacae; E. cloacae 7725, (wild type), non-carbapenemase producer
  MIC: 0.008 µg/mL
E. cloacae; E. cloacae 7746, (wild type), non-carbapenemase producer
  MIC: 0.064 µg/mL
E. cloacae; E. cloacae 10111 (TEM-1 + CTX-M-15)
  MIC: 0.75 µg/mL
E. cloacae; E. cloacae 1008029, VIM-1+ CTX-M-3
  MIC: > 32 µg/mL
E. cloacae; E. cloacae 1008079, IMP-1
  MIC: > 32 µg/mL
E. cloacae; E. cloacae 1008187, IMP-1 + CTX-M-15
  MIC: > 32 µg/mL
E. cloacae; E. cloacae (KPC-2)
  MIC: 6 µg/mL
E. cloacae; E. cloacae BEU, OXA-48 + TEM-1 + CTX-M-15 + SHV-12
  MIC: 8 µg/mL
E. cloacae; E. cloacae CFVL, KPC-2 + TEM-3
  MIC: 2 µg/mL
E. cloacae; E. cloacae CLO (CTX-M-15)
  MIC: 0.12 µg/mL
E. cloacae; E. cloacae CLO, CTX-M-15, non-carbapenemase producer
  MIC: 0.12 µg/mL
E. cloacae; E. cloacae CVB (VEB-1)
  MIC: 0.12 µg/mL
E. cloacae; E. cloacae CVB, VEB-1, non-carbapenemase producer
  MIC: 0.12 µg/mL
E. cloacae; E. cloacae HMG, KPC-2 + TEM-1
  MIC: > 32 µg/mL
E. cloacae; E. cloacae HPTU (KPC-2 + TEM-1 + SHV-11)
  MIC: 4 µg/mL
E. cloacae; E. cloacae HPTU, KPC-2 + TEM-1 + SHV-11
  MIC: 4 µg/mL
E. cloacae; E. cloacae IR38 (NDM-1 + CTX-M-15)
  MIC: 16 µg/mL
E. cloacae; E. cloacae IR38, NDM-1 + CTX-M-15
  MIC: 16 µg/mL
E. cloacae; E. cloacae KAR, VIM-1+ SHV-70
  MIC: 0.38 µg/mL
E. cloacae; E. cloacae TAW (IMP-8 + SHV-12)
  MIC: 0.5 µg/mL
E. cloacae; E. cloacae TAW, IMP-8 + SHV-12
  MIC: 0.5 µg/mL
E. cloacae; E. cloacae TUR (OXA-48 + SHV-5)
  MIC: 0.5 µg/mL
E. cloacae; E. cloacae TUR, OXA-48 + SHV-5
  MIC: 0.5 µg/mL
E. cloacae; E. cloacae TWA, IMP-8
  MIC: 1 µg/mL
E. cloacae; strain E. cloacae 10111, TEM-1 + CTX-M-15, non-carbapenemase producer
  MIC: 0.75 µg/mL
E. cloacae; strain E. cloacae CLO, CTX-M-15, non-carbapenemase producer
  MIC: 0.12 µg/mL
E. cloacae; strain E. cloacae CVB, VEB-1, non-carbapenemase producer
  MIC: 0.12 µg/mL
E. cloacae; strain E. cloacae HPTU, KPC-2 + TEM-1 + SHV-11
  MIC: 4 µg/mL
E. cloacae; strain E. cloacae TAW, IMP-8 + SHV-12
  MIC: 0.5 µg/mL
E. cloacae; strain E. cloacae TUR, OXA-48 + SHV-5
  MIC: 0.5 µg/mL
P. rettgeri; P. rettgeri RAP, OXA-181 + OXA-1
  MIC: 1 µg/mL
P. rettgeri; Providencia rettgeri, P. rettgeri RAP (OXA-181 + OXA-1), read-out: MIC
  MIC: 1 µg/mL
P. rettgeri; strain P. rettgeri RAP, OXA-181 + OXA-1
  MIC: 1 µg/mL
C. freundii; C. freundii MAU, Overexpressed AmpC + TEM-3, non-carbapenemase producer
  MIC: 8 µg/mL
C. freundii; Citrobacter freundii, C. freundii 1003, CTX-M-15 + TEM-1, non-carbapenemase producer, read-out: MIC
  MIC: 0.016 µg/mL
C. freundii; Citrobacter freundii, C. freundii 7767 (wild type), read-out: MIC
  MIC: 0.008 µg/mL
C. freundii; Citrobacter freundii, C. freundii 7767, (wild type), non-carbapenemase producer, read-out: MIC
  MIC: 0.008 µg/mL
C. freundii; Citrobacter freundii, C. freundii 10107 (TEM-1 + SHV-12), read-out: MIC
  MIC: 0.016 µg/mL
C. freundii; Citrobacter freundii, C. freundii 10107, TEM-1 + SHV-12, non-carbapenemase producer, read-out: MIC
  MIC: 0.016 µg/mL
C. freundii; Citrobacter freundii, C. freundii 10135 (CTX-M-15), read-out: MIC
  MIC: 0.016 µg/mL
C. freundii; Citrobacter freundii, C. freundii 10135, CTX-M-15, non-carbapenemase producer, read-out: MIC
  MIC: 0.016 µg/mL
C. freundii; Citrobacter freundii, C. freundii STE (NDM-1 + OXA-1 + OXA-9 + OXA-10 + CTX-M-15 + TEM-1), read-out: MIC
  MIC: > 32 µg/mL
C. freundii; Citrobacter freundii, C. freundii STE, NDM-1 + TEM-1 + CTX-M-15 + VIM-4 + OXA-1 + OXA-9 + OXA-10 + OXA-181, read-out: MIC
  MIC: > 32 µg/mL
C. freundii; Citrobacter freundii, strain C. freundii 10107, TEM-1 + SHV-12, non-carbapenemase producer, read-out: MIC
  MIC: 0.016 µg/mL
C. freundii; Citrobacter freundii, strain C. freundii 10135, CTX-M-15, non-carbapenemase producer, read-out: MIC
  MIC: 0.016 µg/mL
C. freundii; strain C. freundii MAU, Overexpressed AmpC + TEM-3, non-carbapenemase producer
  MIC: 8 µg/mL
P. mirabilis; P. mirabilis PMA (ACC-1)
  MIC: 0.094 µg/mL
P. mirabilis; Proteus mirabilis, P. mirabilis 1031 (CTX-M-14 + TEM-1 + SHV-11), read-out: MIC
  MIC: 0.047 µg/mL
P. mirabilis; Proteus mirabilis, P. mirabilis 1031, CTX-M-14 + TEM-1 + SHV-11, non-carbapenemase producer, read-out: MIC
  MIC: 0.047 µg/mL
P. mirabilis; Proteus mirabilis, P. mirabilis PMA (ACC-1), read-out: MIC
  MIC: 0.12 µg/mL
P. mirabilis; Proteus mirabilis, P. mirabilis PMA, ACC-1, non-carbapenemase producer, read-out: MIC
  MIC: 0.094 µg/mL
